ChEMBL document CHEMBL4396970, “Benzothiazole-based compounds as potent endothelial lipase inhibitors” (Bioorg Med Chem Lett, 2019)
Activity calls are given as the source filed them. No cut-off for these calls is given here.

Legend:
[1] = target: T1, Hepatic triacylglycerol lipase (Homo sapiens, UniProt P11150); assay: Inhibition of hepatic lipase (unknown origin)
T1 sequence (P11150 whole entry): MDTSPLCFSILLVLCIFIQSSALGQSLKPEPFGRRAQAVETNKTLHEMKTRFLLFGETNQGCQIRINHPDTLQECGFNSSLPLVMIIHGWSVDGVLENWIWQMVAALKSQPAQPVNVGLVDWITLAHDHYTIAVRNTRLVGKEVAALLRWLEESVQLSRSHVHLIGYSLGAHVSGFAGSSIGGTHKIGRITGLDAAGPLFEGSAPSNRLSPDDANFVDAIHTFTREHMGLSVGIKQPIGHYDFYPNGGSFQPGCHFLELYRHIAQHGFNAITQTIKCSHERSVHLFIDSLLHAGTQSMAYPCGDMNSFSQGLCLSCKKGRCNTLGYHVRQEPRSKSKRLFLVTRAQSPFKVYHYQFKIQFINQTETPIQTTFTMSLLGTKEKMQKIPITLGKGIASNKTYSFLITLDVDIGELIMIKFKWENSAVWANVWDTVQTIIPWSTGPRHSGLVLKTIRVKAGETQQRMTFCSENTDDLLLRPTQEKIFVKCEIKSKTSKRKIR

Endothelial lipase [2] = target: T2, Endothelial lipase (Homo sapiens, UniProt Q9Y5X9); assay: Inhibition of endothelial lipase in human serum; format: cell-free
T2 sequence (Q9Y5X9 whole entry): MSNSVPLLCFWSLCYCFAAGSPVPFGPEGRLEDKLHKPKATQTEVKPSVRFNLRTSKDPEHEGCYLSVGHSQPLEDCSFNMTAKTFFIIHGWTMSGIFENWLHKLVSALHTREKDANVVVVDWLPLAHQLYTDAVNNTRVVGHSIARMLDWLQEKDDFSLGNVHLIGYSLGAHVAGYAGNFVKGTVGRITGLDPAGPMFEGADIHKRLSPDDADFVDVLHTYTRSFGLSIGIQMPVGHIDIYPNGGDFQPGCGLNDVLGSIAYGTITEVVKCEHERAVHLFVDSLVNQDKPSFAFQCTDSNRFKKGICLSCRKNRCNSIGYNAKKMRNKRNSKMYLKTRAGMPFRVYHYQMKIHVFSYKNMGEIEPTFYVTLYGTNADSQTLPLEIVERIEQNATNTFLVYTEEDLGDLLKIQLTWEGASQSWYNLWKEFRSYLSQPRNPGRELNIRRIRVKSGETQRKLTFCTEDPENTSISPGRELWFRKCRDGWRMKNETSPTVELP

Endothelial lipase [3] = target: T2, Endothelial lipase; assay: Inhibition of endothelial lipase (unknown origin)
[4] = Permeability of compound at pH 7.4 by PAMPA; format: ADME; settings: read-out: permeability
Cytochrome P450 2C9 = Cytochrome P450 2C9 (Homo sapiens, UniProt P11712); assay: Inhibition of CYP2C9 (unknown origin); format: ADME
Cytochrome P450 1A2 = target: T3, Cytochrome P450 1A2 (Homo sapiens, UniProt P05177); assay: Inhibition of CYP1A2 (unknown origin); format: ADME
T3 sequence (P05177 whole entry): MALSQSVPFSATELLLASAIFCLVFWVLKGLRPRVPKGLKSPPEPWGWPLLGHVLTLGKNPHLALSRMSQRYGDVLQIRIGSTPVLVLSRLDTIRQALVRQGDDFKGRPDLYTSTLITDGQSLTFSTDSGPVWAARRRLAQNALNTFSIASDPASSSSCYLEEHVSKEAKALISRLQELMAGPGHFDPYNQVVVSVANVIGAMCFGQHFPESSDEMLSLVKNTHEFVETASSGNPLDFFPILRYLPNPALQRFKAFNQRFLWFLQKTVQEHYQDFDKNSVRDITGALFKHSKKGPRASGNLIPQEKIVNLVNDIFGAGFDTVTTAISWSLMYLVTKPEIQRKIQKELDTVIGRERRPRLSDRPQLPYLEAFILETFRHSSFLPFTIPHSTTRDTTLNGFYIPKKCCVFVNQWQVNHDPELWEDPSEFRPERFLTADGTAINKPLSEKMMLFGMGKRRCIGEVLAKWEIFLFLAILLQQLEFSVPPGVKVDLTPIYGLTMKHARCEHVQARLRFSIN

Cytochrome P450 2D6 = Cytochrome P450 2D6 (Homo sapiens, UniProt P10635); assay: Inhibition of CYP2D6 (unknown origin); format: ADME
[5] = Metabolic stability in human liver microsomes assessed as parent compound remaining at 0.5 uM preincubated with compound followed by NADPH addition and measured after 10 mins; format: ADME, Microsome; settings: read-out: Stability
[6] = Permeability across basolateral to apical side in human Caco2 cells; format: ADME, cell-based; settings: Caco-2, read-out: permeability
[7] = Metabolic stability in mouse liver microsomes assessed as parent compound remaining at 0.5 uM preincubated with compound followed by NADPH addition and measured after 10 mins; format: ADME, Microsome; settings: read-out: Stability
Cytochrome P450 3A4 = Cytochrome P450 3A4 (Homo sapiens, UniProt P08684); assay: Inhibition of CYP3A4 (unknown origin); format: ADME
[8] = Permeability of compound at pH 5.0 by PAMPA; format: ADME; settings: read-out: permeability
Cytochrome P450 2C19 = Cytochrome P450 2C19 (Homo sapiens, UniProt P33261); assay: Inhibition of CYP2C19 (unknown origin); format: ADME
[9] = Permeability across apical to basolateral side in human Caco2 cells; format: ADME, cell-based; settings: Caco-2, read-out: permeability
[10] = Tmax in BALB/c mouse at 10 mg/kg, po; format: ADME, organism-based; settings: in vivo
[11] = Tmin in BALB/c mouse at 50 mg/kg, ip; format: ADME, organism-based; settings: in vivo
[12] = Cmax in BALB/c mouse at 10 mg/kg, po; format: ADME, organism-based; design: dose 10 mg/kg, route oral; settings: in vivo
[13] = Half life in BALB/c mouse at 50 mg/kg, ip; format: ADME, organism-based; settings: in vivo
[14] = Ratio of Cmin in BALB/c mouse to IC50 for endothelial lipase in human serum; format: ADME; settings: in vivo
[15] = Cmax in BALB/c mouse at 50 mg/kg, ip; format: ADME, organism-based; design: dose 50 mg/kg, route intraperitoneal; settings: in vivo
[16] = AUC (0 to 24 hrs) in BALB/c mouse at 10 mg/kg, po; format: ADME, organism-based; design: time < 24 hr, dose 10 mg/kg, route oral; settings: in vivo
[17] = Plasma concentration in BALB/c mouse at 10 mg/kg, po measured at 24 hrs post dose; format: ADME, organism-based
[18] = AUC (0 to 24 hrs) in BALB/c mouse at 50 mg/kg, ip measured up to 24 hrs; format: ADME, organism-based; design: time < 24 hr, dose 50 mg/kg, route intraperitoneal; settings: in vivo
[19] = Half life in BALB/c mouse at 10 mg/kg, po; format: ADME, organism-based; settings: in vivo
[20] = Tmax in BALB/c mouse at 50 mg/kg, ip; format: ADME, organism-based; settings: in vivo
[21] = Plasma concentration in BALB/c mouse at 50 mg/kg, ip measured at 24 hrs post dose; format: ADME, organism-based
[22] = target: T4, Endothelial lipase (Homo sapiens) (UniProt Q9Y5X9); assay: Reversible inhibition of endothelial lipase (unknown origin) assessed as recovery of enzyme activity measured after 24 hrs by dialysis based assay relative to control; design: scale not given: the % may be the effect or the level left
T4 sequence (whole entry): T2 sequence (Q9Y5X9 whole entry)

Mus musculus [23] = assay: Antiatherosclerotic in C57BL/6 mouse assessed as increase in HDL-cholesterol level in plasma at 50 mg/kg, ip qd administrated for 2 days and measured 6 hrs post last dose by FPLC analysis; format: functional, organism-based
Mus musculus [24] = assay: Antiatherosclerotic in C57BL/6 mouse assessed as change in phospholipid level in plasma at 50 mg/kg, ip qd administrated for 2 days and measured 6 hrs post last dose by FPLC analysis; format: functional, organism-based

Sequence of Cytochrome P450 2C19 (P33261 whole entry): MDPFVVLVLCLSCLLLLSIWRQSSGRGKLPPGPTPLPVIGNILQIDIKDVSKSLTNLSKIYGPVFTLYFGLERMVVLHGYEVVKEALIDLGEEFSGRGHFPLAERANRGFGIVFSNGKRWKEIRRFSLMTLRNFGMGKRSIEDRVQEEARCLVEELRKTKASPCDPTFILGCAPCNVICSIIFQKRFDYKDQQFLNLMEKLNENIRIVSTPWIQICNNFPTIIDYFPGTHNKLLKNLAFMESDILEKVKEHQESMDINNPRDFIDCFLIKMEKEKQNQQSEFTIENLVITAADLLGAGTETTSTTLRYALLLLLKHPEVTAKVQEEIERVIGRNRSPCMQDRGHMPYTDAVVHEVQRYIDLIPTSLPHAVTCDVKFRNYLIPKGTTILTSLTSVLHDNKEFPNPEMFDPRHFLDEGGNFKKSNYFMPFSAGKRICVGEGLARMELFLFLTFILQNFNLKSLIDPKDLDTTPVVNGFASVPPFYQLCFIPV
Sequence of Cytochrome P450 2C9 (P11712 whole entry): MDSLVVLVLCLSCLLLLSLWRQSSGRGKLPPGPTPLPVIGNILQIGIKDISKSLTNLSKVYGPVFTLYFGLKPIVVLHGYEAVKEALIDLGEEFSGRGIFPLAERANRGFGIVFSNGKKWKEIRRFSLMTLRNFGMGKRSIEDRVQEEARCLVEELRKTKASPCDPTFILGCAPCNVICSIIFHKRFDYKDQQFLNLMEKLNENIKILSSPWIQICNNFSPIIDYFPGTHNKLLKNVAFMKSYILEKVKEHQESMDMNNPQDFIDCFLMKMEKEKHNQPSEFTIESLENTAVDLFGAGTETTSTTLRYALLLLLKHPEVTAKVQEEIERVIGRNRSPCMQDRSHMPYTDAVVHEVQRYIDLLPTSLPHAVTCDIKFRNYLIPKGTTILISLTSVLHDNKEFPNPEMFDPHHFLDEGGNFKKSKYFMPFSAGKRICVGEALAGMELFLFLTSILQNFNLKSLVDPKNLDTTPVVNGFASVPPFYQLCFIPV
Sequence of Cytochrome P450 3A4 (P08684 whole entry): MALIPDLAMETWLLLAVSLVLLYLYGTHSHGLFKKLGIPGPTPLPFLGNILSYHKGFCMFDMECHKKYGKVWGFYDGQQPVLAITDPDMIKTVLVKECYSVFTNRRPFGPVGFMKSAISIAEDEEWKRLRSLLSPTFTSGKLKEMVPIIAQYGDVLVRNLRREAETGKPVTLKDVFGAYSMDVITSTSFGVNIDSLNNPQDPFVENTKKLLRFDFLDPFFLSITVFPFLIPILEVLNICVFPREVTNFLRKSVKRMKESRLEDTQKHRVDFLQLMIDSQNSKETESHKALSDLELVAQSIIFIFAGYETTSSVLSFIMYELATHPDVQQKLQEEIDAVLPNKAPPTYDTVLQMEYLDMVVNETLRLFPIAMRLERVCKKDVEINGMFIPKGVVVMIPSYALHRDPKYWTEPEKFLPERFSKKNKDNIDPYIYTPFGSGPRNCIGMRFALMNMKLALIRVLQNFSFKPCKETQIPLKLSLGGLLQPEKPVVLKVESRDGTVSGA
Sequence of Cytochrome P450 2D6 (P10635 whole entry): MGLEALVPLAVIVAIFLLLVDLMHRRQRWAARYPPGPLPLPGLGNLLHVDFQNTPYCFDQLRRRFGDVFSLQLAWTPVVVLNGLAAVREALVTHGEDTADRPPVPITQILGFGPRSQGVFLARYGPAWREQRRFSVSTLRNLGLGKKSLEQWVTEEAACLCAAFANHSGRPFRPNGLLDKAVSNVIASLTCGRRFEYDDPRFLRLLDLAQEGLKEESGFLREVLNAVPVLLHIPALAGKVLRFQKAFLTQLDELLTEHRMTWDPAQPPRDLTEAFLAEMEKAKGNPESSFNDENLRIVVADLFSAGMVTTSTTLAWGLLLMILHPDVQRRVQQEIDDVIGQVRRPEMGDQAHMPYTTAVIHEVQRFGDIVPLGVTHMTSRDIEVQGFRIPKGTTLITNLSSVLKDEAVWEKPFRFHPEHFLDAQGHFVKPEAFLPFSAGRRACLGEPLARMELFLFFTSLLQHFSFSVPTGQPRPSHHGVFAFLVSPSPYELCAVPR

| SMILES | IC50 [1] | IC50 (Endothelial lipase [2]) | IC50 (Endothelial lipase [3]) | Papp [4] | IC50 (Cytochrome P450 2C9) | IC50 (Cytochrome P450 1A2) | IC50 (Cytochrome P450 2D6) | remaining at 10 min, 0.5 µM [5] | Papp B→A [6] | remaining at 10 min, 0.5 µM [7] | IC50 (Cytochrome P450 3A4) | Papp [8] | IC50 (Cytochrome P450 2C19) | Papp A→B [9] | other results |
| --- | --- | --- | --- | --- | --- | --- | --- | --- | --- | --- | --- | --- | --- | --- | --- |
| CN(C)C(=O)c1ccc(-c2ccc3nc(C(C#N)C(=O)NCC(=O)NC4CC4)sc3c2)cc1F (racemic) | 1100 nM | 70 nM | – | – | – | – | – | – | – | – | – | – | – | – | – |
| N#CC(C(=O)NCC(=O)NC1CC1)c1nc2ccc(-c3ccc(F)nc3)cc2s1 (racemic) | 500 nM | 230 nM | 170 nM | – | – | – | – | – | – | – | – | – | – | – | – |
| CN1CCN(C(=O)c2ccc(-c3ccc4nc(C(C#N)C(=O)NCC(=O)NC5CC5)sc4c3)cc2)CC1 (racemic) | 1800 nM | 30 nM | – | 0.3 ×10⁻⁶ cm/s | > 18000 nM | > 18000 nM | > 18000 nM | 78% | 3 ×10⁻⁶ cm/s | 91% | > 18000 nM | 0.2 ×10⁻⁶ cm/s | > 18000 nM | < 1.5 ×10⁻⁶ cm/s | – |
| N#CC(C(=O)NCC(=O)NC1COC1)c1nc2ccc(-c3ccc(F)nc3)cc2s1 (racemic) | 190 nM | 50 nM | – | 0.4 ×10⁻⁶ cm/s | > 18000 nM | > 18000 nM | > 18000 nM | 87% | 34.9 ×10⁻⁶ cm/s | 87% | > 18000 nM | 6.5 ×10⁻⁶ cm/s | > 18000 nM | < 1.5 ×10⁻⁶ cm/s | – |
| N#CC(C(=O)NCC(=O)NC1CC1)c1nc2ccc(-c3ccc(C(=O)N4CCC4)cc3)cc2s1 (racemic) | 170 nM | 170 nM | – | – | – | – | – | – | – | – | – | – | – | – | – |
| N#CC(C(=O)NCC(=O)N1CCCC1)c1nc2ccc(-c3ccccc3)cc2s1 (racemic) | 250 nM | 1100 nM | 1300 nM | – | – | – | – | – | – | – | – | – | – | – | – |
| N#CC(C(=O)NCC(=O)NC1CC1)c1nc2ccc(-c3ccccc3)cc2s1 (racemic) | 5.4 nM | 51 nM | – | 84.5 ×10⁻⁶ cm/s | > 18000 nM | > 18000 nM | > 18000 nM | 91% | 24.6 ×10⁻⁶ cm/s | 86% | > 18000 nM | 162 ×10⁻⁶ cm/s | > 18000 nM | 2 ×10⁻⁶ cm/s | Tmax [10]: 0.25 h; Tmin [11]: 23.8 h; Cmax [12]: 6.6 µM; half-life [13]: 4.7 h; Ratio [14]: > 30; Cmax [15]: 28 µM; AUC(0-t) at 24 h [16]: 18 µM·h; concentration at 24 h [17]: 0.14 µM; AUC(0-t) at 24 h [18]: 330 µM·h; half-life [19]: 8.5 h; Tmax [20]: 7 h; concentration at 24 h [21]: 1.66 µM; Activity [22]: 88%; Activity (Mus musculus [23]): inactive; Activity (Mus musculus [24]): inactive |
| N#CC(C(=O)NCC(=O)NC1CC1)c1nc2ccc(-c3ccc(C(=O)N4CCOCC4)cc3)cc2s1 (racemic) | 300 nM | 50 nM | – | 0.4 ×10⁻⁶ cm/s | > 18000 nM | > 18000 nM | > 18000 nM | 98% | 18.4 ×10⁻⁶ cm/s | 100% | > 18000 nM | 10.4 ×10⁻⁶ cm/s | > 18000 nM | 1.7 ×10⁻⁶ cm/s | – |
| CN1CCN(C(=O)c2ccc(-c3ccc4nc(C(C#N)C(=O)NCC(=O)NC5CCC5)sc4c3)cc2)CC1 (racemic) | 490 nM | 200 nM | 3100 nM | – | – | – | – | – | – | – | – | – | – | – | – |
| N#CC(C(=O)NCC(=O)NC1CC1)c1nc2ccc(-c3ccc4c(c3)C(=O)NC4)cc2s1 (racemic) | 420 nM | 130 nM | – | – | – | – | – | – | – | – | – | – | – | – | – |
| N#CC(C(=O)NCC(=O)NC1CC1)c1nc2ccc(-c3ccc4c(c3)CNC4=O)cc2s1 (racemic) | 70 nM | 100 nM | 5.3 nM | – | – | – | – | – | – | – | – | – | – | – | – |
| N#CC(C(=O)NCC(=O)NC1CC1)c1nc2ccc(-c3cccc(C(=O)N4CCCCC4)c3)cc2s1 (racemic) | 35 nM | 140 nM | – | – | – | – | – | – | – | – | – | – | – | – | – |
| CN(C)C(=O)c1cccc(-c2ccc3nc(C(C#N)C(=O)NCC(=O)NC4CC4)sc3c2)c1 (racemic) | 720 nM | 30 nM | – | 0.3 ×10⁻⁶ cm/s | > 18000 nM | > 18000 nM | > 18000 nM | 76% | 7.5 ×10⁻⁶ cm/s | 99% | > 18000 nM | 8.4 ×10⁻⁶ cm/s | > 18000 nM | < 1.5 ×10⁻⁶ cm/s | – |
| N#CC(C(=O)NCC(=O)NC1CC1)c1nc2ccc(-c3ccc(NC(=O)OCc4ccccc4)cc3)cc2s1 (racemic) | 0.8 nM | 80 nM | 1 nM | – | – | – | – | – | – | – | – | – | – | – | – |
